Measurements as given in ChEMBL document CHEMBL1155520, “Novel 8a-aza-8a-homoerythromycin--4''-(3-substituted-amino)propionates with broad spectrum antibacterial activity” (2010).
In brackets after ≈: the same amount, converted by molar mass.

Columns and labels:
Type in all cases: functional
Haemophilus influenzae = experiment: Antimicrobial activity against Haemophilus influenzae ATCC 49247
Staphylococcus aureus = experiment: Antimicrobial activity against macrolide-sensitive Staphylococcus aureus ATCC 13709
Streptococcus pyogenes [1] = experiment: Antimicrobial activity against inducible macrolide, lincosamide, streptogramin-resistant Streptococcus pyogenes Finland 11
Streptococcus pneumoniae [2] = experiment: Antimicrobial activity against inducible macrolide and constitutive lincosamide, streptogramin-resistant Streptococcus pneumoniae 4636
Streptococcus pneumoniae [3] = experiment: Antimicrobial activity against macrolide-sensitive Streptococcus pneumoniae SPO 30
Streptococcus pyogenes [4] = experiment: Antimicrobial activity against macrolide-sensitive Streptococcus pyogenes 3665
Streptococcus pneumoniae [5] = experiment: Antimicrobial activity against macrolide-resistant Streptococcus pneumoniae Ci137

Structure (SMILES) | MIC (Haemophilus influenzae) [µg/mL] | MIC (Staphylococcus aureus) [µg/mL] | MIC (Streptococcus pyogenes [1]) [µg/mL] | MIC (Streptococcus pneumoniae [2]) [µg/mL] | MIC (Streptococcus pneumoniae [3]) [µg/mL] | MIC (Streptococcus pyogenes [4]) [µg/mL] | MIC (Streptococcus pneumoniae [5]) [µg/mL]
CC[C@H]1OC(=O)[C@H](C)[C@@H](O[C@H]2C[C@@](C)(OC)[C@@H](OC(=O)CCN[C@H](C)c3ccc([N+](=O)[O-])cc3)[C@H](C)O2)[C@H](C)[C@@H](O[C@@H]2O[C@H](C)C[C@H](N(C)C)[C@H]2O)[C@](C)(O)C[C@@H](C)NC(=O)[C@H](C)[C@@H](O)[C@]1(C)O | 4 (≈ 4.13 µM) | 4 (≈ 4.13 µM) | 8 (≈ 8.25 µM) | 32 (≈ 33 µM) | < 0.13 | < 0.13 | 4 (≈ 4.13 µM)
CC[C@H]1OC(=O)[C@H](C)[C@@H](O[C@H]2C[C@@](C)(OC)[C@@H](OC(=O)CCNCC(=O)Nc3cccc4ncccc34)[C@H](C)O2)[C@H](C)[C@@H](O[C@@H]2O[C@H](C)C[C@H](N(C)C)[C@H]2O)[C@](C)(OC)C[C@@H](C)NC(=O)[C@H](C)[C@@H](O)[C@]1(C)O | > 32 | 8 (≈ 7.86 µM) | 32 (≈ 31.4 µM) | > 32 | < 0.13 | 0.25 (≈ 0.246 µM) | 16 (≈ 15.7 µM)
CC[C@H]1OC(=O)[C@H](C)[C@@H](O[C@H]2C[C@@](C)(OC)[C@@H](OC(=O)CCN[C@@H](C)c3ccc([N+](=O)[O-])cc3)[C@H](C)O2)[C@H](C)[C@@H](O[C@@H]2O[C@H](C)C[C@H](N(C)C)[C@H]2O)[C@](C)(OC)C[C@@H](C)NC(=O)[C@H](C)[C@@H](O)[C@]1(C)O | 32 (≈ 32.5 µM) | 2 (≈ 2.03 µM) | 4 (≈ 4.07 µM) | > 32 | < 0.13 | < 0.13 | 2 (≈ 2.03 µM)
CC[C@H]1OC(=O)[C@H](C)[C@@H](O[C@H]2C[C@@](C)(OC)[C@@H](OC(=O)CCN3CCN(c4ccc([N+](=O)[O-])cc4)CC3)[C@H](C)O2)[C@H](C)[C@@H](O[C@@H]2O[C@H](C)C[C@H](N(C)C)[C@H]2O)[C@](C)(OC)C[C@@H](C)NC(=O)[C@H](C)[C@@H](O)[C@]1(C)O | 2 (≈ 1.95 µM) | 2 (≈ 1.95 µM) | 8 (≈ 7.81 µM) | 8 (≈ 7.81 µM) | < 0.13 | < 0.13 | 1 (≈ 0.976 µM)
CC[C@H]1OC(=O)[C@H](C)[C@@H](O[C@H]2C[C@@](C)(OC)[C@@H](OC(=O)CCN[C@@H](C)C(=O)Nc3ccc([N+](=O)[O-])cc3)[C@H](C)O2)[C@H](C)[C@@H](O[C@@H]2O[C@H](C)C[C@H](N(C)C)[C@H]2O)[C@](C)(OC)C[C@@H](C)NC(=O)[C@H](C)[C@@H](O)[C@]1(C)O | 2 (≈ 1.95 µM) | 0.5 (≈ 0.487 µM) | 1 (≈ 0.974 µM) | 16 (≈ 15.6 µM) | < 0.13 | < 0.13 | 0.5 (≈ 0.487 µM)
CC[C@H]1OC(=O)[C@H](C)[C@@H](O[C@H]2C[C@@](C)(OC)[C@@H](OC(=O)CCNCCNc3cccc4ccccc34)[C@H](C)O2)[C@H](C)[C@@H](O[C@@H]2O[C@H](C)C[C@H](N(C)C)[C@H]2O)[C@](C)(OC)C[C@@H](C)NC(=O)[C@H](C)[C@@H](O)[C@]1(C)O | – | 1 (≈ 0.997 µM) | 4 (≈ 3.99 µM) | > 32 | < 0.13 | < 0.13 | 2 (≈ 1.99 µM)
CC[C@H]1OC(=O)[C@H](C)[C@@H](O[C@H]2C[C@@](C)(OC)[C@@H](OC(=O)CCN[C@@H](C)C(=O)Nc3ccc([N+](=O)[O-])cc3)[C@H](C)O2)[C@H](C)[C@@H](O[C@@H]2O[C@H](C)C[C@H](N(C)C)[C@H]2O)[C@](C)(O)C[C@@H](C)NC(=O)[C@H](C)[C@@H](O)[C@]1(C)O | 4 (≈ 3.95 µM) | 4 (≈ 3.95 µM) | 4 (≈ 3.95 µM) | 32 (≈ 31.6 µM) | < 0.13 | < 0.13 | 2 (≈ 1.98 µM)
CC[C@H]1OC(=O)[C@H](C)[C@@H](O[C@H]2C[C@@](C)(OC)[C@@H](OC(=O)CCNCC(=O)Nc3ccc([N+](=O)[O-])cc3)[C@H](C)O2)[C@H](C)[C@@H](O[C@@H]2O[C@H](C)C[C@H](N(C)C)[C@H]2O)[C@](C)(OC)C[C@@H](C)NC(=O)[C@H](C)[C@@H](O)[C@]1(C)O | 2 (≈ 1.98 µM) | 1 (≈ 0.988 µM) | 4 (≈ 3.95 µM) | 16 (≈ 15.8 µM) | < 0.13 | < 0.13 | 2 (≈ 1.98 µM)
CC[C@H]1OC(=O)[C@H](C)[C@@H](O[C@H]2C[C@@](C)(OC)[C@@H](OC(=O)CCN[C@@H](C)c3ccc([N+](=O)[O-])cc3)[C@H](C)O2)[C@H](C)[C@@H](O[C@@H]2O[C@H](C)C[C@H](N(C)C)[C@H]2O)[C@](C)(O)C[C@@H](C)NC(=O)[C@H](C)[C@@H](O)[C@]1(C)O | 8 (≈ 8.25 µM) | 4 (≈ 4.13 µM) | 4 (≈ 4.13 µM) | 16 (≈ 16.5 µM) | < 0.13 | < 0.13 | 4 (≈ 4.13 µM)
CC[C@H]1OC(=O)[C@H](C)[C@@H](O[C@H]2C[C@@](C)(OC)[C@@H](OC(=O)CCNCCNc3cncc([N+](=O)[O-])c3)[C@H](C)O2)[C@H](C)[C@@H](O[C@@H]2O[C@H](C)C[C@H](N(C)C)[C@H]2O)[C@](C)(OC)C[C@@H](C)NC(=O)[C@H](C)[C@@H](O)[C@]1(C)O | 4 (≈ 4 µM) | 0.25 (≈ 0.25 µM) | 0.25 (≈ 0.25 µM) | 4 (≈ 4 µM) | < 0.13 | < 0.13 | 0.5 (≈ 0.5 µM)
CC[C@H]1OC(=O)[C@H](C)[C@@H](O[C@H]2C[C@@](C)(OC)[C@@H](OC(=O)CCN3CCN(C(=O)c4ccco4)CC3)[C@H](C)O2)[C@H](C)[C@@H](O[C@@H]2O[C@H](C)C[C@H](N(C)C)[C@H]2O)[C@](C)(OC)C[C@@H](C)NC(=O)[C@H](C)[C@@H](O)[C@]1(C)O | 4 (≈ 4.01 µM) | 2 (≈ 2.01 µM) | 16 (≈ 16 µM) | 32 (≈ 32.1 µM) | < 0.13 | < 0.13 | 2 (≈ 2.01 µM)
CC[C@H]1OC(=O)[C@H](C)[C@@H](O[C@H]2C[C@@](C)(OC)[C@@H](OC(=O)CCNCC(=O)Nc3ccc4ccccc4c3)[C@H](C)O2)[C@H](C)[C@@H](O[C@@H]2O[C@H](C)C[C@H](N(C)C)[C@H]2O)[C@](C)(O)C[C@@H](C)NC(=O)[C@H](C)[C@@H](O)[C@]1(C)O | 4 (≈ 3.99 µM) | 4 (≈ 3.99 µM) | 8 (≈ 7.97 µM) | 32 (≈ 31.9 µM) | < 0.13 | < 0.13 | 2 (≈ 1.99 µM)
CC[C@H]1OC(=O)[C@H](C)[C@@H](O[C@H]2C[C@@](C)(OC)[C@@H](OC(=O)CCNCC(=O)Nc3cnc4ccccc4c3)[C@H](C)O2)[C@H](C)[C@@H](O[C@@H]2O[C@H](C)C[C@H](N(C)C)[C@H]2O)[C@](C)(OC)C[C@@H](C)NC(=O)[C@H](C)[C@@H](O)[C@]1(C)O | > 32 | 2 (≈ 1.96 µM) | 16 (≈ 15.7 µM) | > 32 | < 0.13 | < 0.13 | 2 (≈ 1.96 µM)
CC[C@H]1OC(=O)[C@H](C)[C@@H](O[C@H]2C[C@@](C)(OC)[C@@H](OC(=O)CCN3CCN(C(=O)c4ccco4)CC3)[C@H](C)O2)[C@H](C)[C@@H](O[C@@H]2O[C@H](C)C[C@H](N(C)C)[C@H]2O)[C@](C)(O)C[C@@H](C)NC(=O)[C@H](C)[C@@H](O)[C@]1(C)O | 16 (≈ 16.3 µM) | 4 (≈ 4.07 µM) | 8 (≈ 8.14 µM) | > 64 | < 0.13 | < 0.13 | 2 (≈ 2.03 µM)
CC[C@H]1OC(=O)[C@H](C)[C@@H](O[C@H]2C[C@@](C)(OC)[C@@H](OC(=O)CCNCC(=O)Nc3ccc4ccccc4c3)[C@H](C)O2)[C@H](C)[C@@H](O[C@@H]2O[C@H](C)C[C@H](N(C)C)[C@H]2O)[C@](C)(OC)C[C@@H](C)NC(=O)[C@H](C)[C@@H](O)[C@]1(C)O | 2 (≈ 1.97 µM) | 1 (≈ 0.983 µM) | 16 (≈ 15.7 µM) | 16 (≈ 15.7 µM) | < 0.13 | < 0.13 | 2 (≈ 1.97 µM)
CC[C@H]1OC(=O)[C@H](C)[C@@H](O[C@H]2C[C@@](C)(OC)[C@@H](OC(=O)CCNCC(=O)Nc3ccc([N+](=O)[O-])cc3)[C@H](C)O2)[C@H](C)[C@@H](O[C@@H]2O[C@H](C)C[C@H](N(C)C)[C@H]2O)[C@](C)(O)C[C@@H](C)NC(=O)[C@H](C)[C@@H](O)[C@]1(C)O | 8 (≈ 8.01 µM) | 2 (≈ 2 µM) | 4 (≈ 4.01 µM) | 32 (≈ 32.1 µM) | < 0.13 | < 0.13 | 4 (≈ 4.01 µM)
CC[C@H]1OC(=O)[C@H](C)[C@@H](O[C@H]2C[C@@](C)(OC)[C@@H](OC(=O)CCN[C@H](C)c3ccc([N+](=O)[O-])cc3)[C@H](C)O2)[C@H](C)[C@@H](O[C@@H]2O[C@H](C)C[C@H](N(C)C)[C@H]2O)[C@](C)(OC)C[C@@H](C)NC(=O)[C@H](C)[C@@H](O)[C@]1(C)O | 32 (≈ 32.5 µM) | 1 (≈ 1.02 µM) | 4 (≈ 4.07 µM) | > 32 | < 0.13 | < 0.13 | 2 (≈ 2.03 µM)
CC[C@H]1OC(=O)[C@H](C)[C@@H](O[C@H]2C[C@@](C)(OC)[C@@H](OC(=O)CCNCC(=O)Nc3ccc4cccnc4c3)[C@H](C)O2)[C@H](C)[C@@H](O[C@@H]2O[C@H](C)C[C@H](N(C)C)[C@H]2O)[C@](C)(OC)C[C@@H](C)NC(=O)[C@H](C)[C@@H](O)[C@]1(C)O | > 32 | 2 (≈ 1.96 µM) | 16 (≈ 15.7 µM) | > 32 | < 0.13 | < 0.13 | 4 (≈ 3.93 µM)
CC[C@H]1OC(=O)[C@H](C)[C@@H](O[C@H]2C[C@@](C)(OC)[C@@H](OC(=O)CCN[C@@H](C)C(=O)Nc3ccc4ccccc4c3)[C@H](C)O2)[C@H](C)[C@@H](O[C@@H]2O[C@H](C)C[C@H](N(C)C)[C@H]2O)[C@](C)(O)C[C@@H](C)NC(=O)[C@H](C)[C@@H](O)[C@]1(C)O | 2 (≈ 1.97 µM) | 2 (≈ 1.97 µM) | 8 (≈ 7.86 µM) | 32 (≈ 31.5 µM) | < 0.13 | < 0.13 | 0.5 (≈ 0.492 µM)
